According to patent US20240408216A1, “PROTEIN INHIBITOR OR DEGRADING AGENT, PHARMACEUTICAL COMPOSITION CONTAINING SAME AND PHARMACEUTICAL USE” (JING MEDICINE TECHNOLOGY (SHANGHAI) LTD., priority 2021, published 2024):

Legend:
[1] = tested on: BaF3 (EGFR L858R/T790M/C797S); test: Cell proliferation IC50 assay (Cell Titer GLO), BaF3 LTC cells; format: cell-based; conditions: Mus musculus, Ba/F3 EGFR, Table 6, 72 h
Description: (§1) IC50 of compounds in the present invention was determined by Cell Titer GLO reagent from Promega. The procedures are as follows:
(§2) Tumor cells were cultured in specified medium in an incubator at 37° C. and 5% CO2. The cells were passaged periodically. Cells at the logarithmic growth phase were collected for plating at a density of 2000-4000 cells/well. The next day, the compounds of the present invention were serially diluted and added to the cells, with DMSO being the negative control and the culture media without cells being the blank control. The plate was incubated in the incubator for 72 h. The cell viability assay was performed by adding the detection reagents to the cell culture media according to Cell Titer GLO reagent instructions and detecting luminescent signals on an EnVision microplate reader (PerkinElmer).
(§3) Inhibition of cell growth by the compounds of the present invention was plotted by Prism Graphpad software for statistically calculating the IC50 of the compound of the present invention.

A431 = test: Cell proliferation IC50 assay (Cell Titer GLO), A431 cells; format: cell-based; conditions: Homo sapiens, A-431; Table 6; A431, 72 h; read-out: A431 IC50
Description: as §1, §2, §3

BaF3 (EGFR WT) = test: Cell proliferation IC50 assay (Cell Titer GLO), BaF3 WT cells; format: cell-based; conditions: Mus musculus, Ba/F3 EGFR, Table 6, 10 ng/ml EGF, 72 h
Description: as §1, §2, §3

BaF3 (EGFR Del19/C797S) = target: T1, BaF3 (EGFR Del19/C797S) (Homo sapiens, UniProt P00533, C797S, cells depend on it, form not given); test: Cell proliferation IC50 assay (Cell Titer GLO), BaF3 DC cells; format: cell-based, mouse; conditions: Table 6, 72 h
T1 construct: BaF3 (EGFR Del19/C797S)|DC|RPMI1640 + 10% FBS
T1 sequence (P00533 with tags, fused parts or gaps DEL746-750/C797S, form open): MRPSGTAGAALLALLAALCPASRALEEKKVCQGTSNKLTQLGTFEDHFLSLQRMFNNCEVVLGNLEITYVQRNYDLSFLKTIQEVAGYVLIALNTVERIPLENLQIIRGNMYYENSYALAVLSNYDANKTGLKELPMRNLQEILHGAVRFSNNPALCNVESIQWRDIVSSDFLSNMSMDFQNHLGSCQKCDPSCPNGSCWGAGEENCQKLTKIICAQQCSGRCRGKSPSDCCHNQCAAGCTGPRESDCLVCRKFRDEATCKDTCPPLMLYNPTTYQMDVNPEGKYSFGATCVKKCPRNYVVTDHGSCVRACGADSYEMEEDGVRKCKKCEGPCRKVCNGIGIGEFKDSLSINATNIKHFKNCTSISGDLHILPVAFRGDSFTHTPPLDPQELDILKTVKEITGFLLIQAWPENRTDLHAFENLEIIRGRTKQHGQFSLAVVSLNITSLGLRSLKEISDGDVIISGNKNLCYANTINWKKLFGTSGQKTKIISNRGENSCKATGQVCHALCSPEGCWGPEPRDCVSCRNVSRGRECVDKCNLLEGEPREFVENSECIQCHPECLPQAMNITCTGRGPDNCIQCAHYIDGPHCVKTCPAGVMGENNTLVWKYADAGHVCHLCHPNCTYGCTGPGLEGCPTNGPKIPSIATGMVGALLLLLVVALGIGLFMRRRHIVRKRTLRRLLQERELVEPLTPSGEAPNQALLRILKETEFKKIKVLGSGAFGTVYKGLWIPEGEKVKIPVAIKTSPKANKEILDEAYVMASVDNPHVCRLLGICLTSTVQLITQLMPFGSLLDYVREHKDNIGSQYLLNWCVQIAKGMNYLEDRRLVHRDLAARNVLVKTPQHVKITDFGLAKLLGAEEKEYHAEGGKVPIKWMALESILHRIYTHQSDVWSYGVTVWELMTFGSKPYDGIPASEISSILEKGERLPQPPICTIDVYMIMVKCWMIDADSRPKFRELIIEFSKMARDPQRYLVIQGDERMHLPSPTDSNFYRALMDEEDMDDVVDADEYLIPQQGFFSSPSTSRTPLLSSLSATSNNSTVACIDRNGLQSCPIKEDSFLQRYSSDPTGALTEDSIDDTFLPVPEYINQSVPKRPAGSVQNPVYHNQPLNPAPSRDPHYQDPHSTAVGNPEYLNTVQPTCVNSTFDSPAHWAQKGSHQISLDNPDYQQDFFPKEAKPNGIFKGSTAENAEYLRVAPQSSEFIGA
Description: as §1, §2, §3

Compound | IC50 [1] | IC50 (A431) | IC50 (BaF3 (EGFR WT)) | IC50 (BaF3 (EGFR Del19/C797S))
CCc1cc(Nc2ncc(Cl)c(Nc3ccccc3P(C)(C)=O)n2)cc(C(N)=O)c1N1CCC(N2CCN(CCCCOc3cccc4c3CN(C3CCC(=O)NC3=O)C4=O)CC2)CC1 (centres unmarked) [Example E139] | 694 nM | 963 nM | 554 nM | 60.9 nM
CCc1cc(Nc2nc(Nc3ccccc3P(C)(C)=O)c3cc[nH]c3n2)c(C(C)(C)O)cc1N1CCC(N2CCN(CCCCOc3cccc4c3CN(C3CCC(=O)NC3=O)C4=O)CC2)CC1 (centres unmarked) [Example E142] | 1100 nM | > 4000 nM | 792 nM | 124 nM
CCc1cc(Nc2ncc(Cl)c(Nc3ccccc3P(C)(C)=O)n2)c(OC)cc1N1CCC(N2CCN(CCC#Cc3ccc4c(c3)c(N3CCC(=O)NC3=O)nn4C)CC2)CC1 [Example E145] | 506 nM | 1110 nM | > 4000 nM | 79.1 nM
CCc1cc(Nc2ncc(-c3ccn(C)n3)c(Nc3ccccc3P(C)(C)=O)n2)c(OC)cc1N1CCC(N2CCN(CCOc3cccc4c3CN(C3CCC(=O)NC3=O)C4=O)CC2)CC1 (centres unmarked) [Example E147] | 2000 nM | > 4000 nM | 1570 nM | 56.1 nM
CCc1cc(Nc2ncc(C(=O)N3CCCC3)c(Nc3ccccc3P(C)(C)=O)n2)c(OC)cc1N1CCC(N2CCN(CCOc3cccc4c3CN(C3CCC(=O)NC3=O)C4=O)CC2)CC1 (centres unmarked) [Example E148] | > 4000 nM | > 4000 nM | > 4000 nM | 9.3 nM
CCc1cc(Nc2ncc(-c3nc(C)no3)c(Nc3ccccc3P(C)(C)=O)n2)c(OC)cc1N1CCC(N2CCN(CCOc3cccc4c3CN(C3CCC(=O)NC3=O)C4=O)CC2)CC1 (centres unmarked) [Example E149] | 3480 nM | > 4000 nM | 1290 nM | 37.2 nM
CCc1cc(Nc2nc(Nc3ccccc3P(C)(C)=O)c3cc[nH]c3n2)c(C(F)(F)F)cc1N1CCC(N2CCN(CCCCOc3cccc4c3CN(C3CCC(=O)NC3=O)C4=O)CC2)CC1 (centres unmarked) [Example E154] | 3430 nM | > 4000 nM | > 4000 nM | 446 nM

Compounds with a lower IC50 [1], results first:

IC50 [1] | IC50 (A431) | IC50 (BaF3 (EGFR WT)) | IC50 (BaF3 (EGFR Del19/C797S)) | Compound
112 nM | 1340 nM | > 4000 nM | 6.3 nM | CCc1cc(Nc2ncc(Cl)c(Nc3ccccc3P(C)(C)=O)n2)c(OC)cc1N1CCC(N2CCN(CCOc3cccc4c3CN(C3CCC(=O)NC3=O)C4=O)CC2=O)CC1 (centres unmarked) [Example E118]
67.3 nM | 1400 nM | > 4000 nM | 5.6 nM | CCc1cc(Nc2ncc(Cl)c(Nc3ccccc3P(C)(C)=O)n2)c(OC)cc1N1CCC(N2CCN(CCCCNc3cccc4c3CN(C3CCC(=O)NC3=O)C4=O)CC2)CC1 (centres unmarked) [Example E119]
79.6 nM | 1270 nM | 595 nM | 8.7 nM | COc1cc(N2CCC(N3CCN(CCCCOc4cccc5c4CN(C4CCC(=O)NC4=O)C5=O)CC3)CC2)c(CO)cc1Nc1ncc(Cl)c(Nc2ccccc2P(C)(C)=O)n1 (centres unmarked) [Example E127]
50.3 nM | > 4000 nM | > 4000 nM | 14.7 nM | CCc1cc(Nc2nc(Nc3ccccc3P(C)(C)=O)c3cc[nH]c3n2)c(OC)cc1N1CCC(N2CCN(CCCCOc3cc(F)cc4c3CN(C3CCC(=O)NC3=O)C4=O)CC2)CC1 (centres unmarked) [Example E141]
105 nM | 1370 nM | 1200 nM | 35.2 nM | CCc1cc(Nc2ncc(Cl)c(Nc3ccccc3P(C)(C)=O)n2)c(OC)cc1N1CCC(N2CCN(CCOc3cccc4c3CN(C3CCC(=O)NC3=O)C4=O)C3(CC3)C2)CC1 (centres unmarked) [Example E144]
65.9 nM | > 4000 nM | > 4000 nM | 26.3 nM | CCc1cc(N2CCC(N3CCN(CCCCOc4cccc5c4CN(C4CCC(=O)NC4=O)C5=O)CC3)CC2)c(CC)cc1Nc1nc(Nc2ccccc2P(C)(C)=O)c2cc[nH]c2n1 (centres unmarked) [Example E153]
21.9 nM | 1850 nM | 646 nM | 1.4 nM | CCc1cc(Nc2ncc(Cl)c(Nc3ccccc3P(C)(C)=O)n2)c(OC)cc1N1CCC(N2CCN([C@H]3C[C@@H](Oc4cccc5c4CN(C4CCC(=O)NC4=O)C5=O)C3)CC2)CC1 (some centres unmarked) [Example E159]
